Assay results from patent US9718819B2 (Merck Sharp & Dohme Corp., priority 2012, dated 2017).

Experiments:
[1] = target: HIV-1 RT wild-type enzyme (Human immunodeficiency virus type 1 group M subtype B (isolate HXB2) (HIV-1), UniProt P04585); assay: HIV-1 reverse transcriptase inhibitory activity (RT polymerase assay); type: biochemical; conditions: HIV-1 RT wild-type enzyme 83 pM; RNA-dependent DNA polymerase activity; read-out: IC50
How it was run: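 Enzyme and compound were preincubated 30 min at room temperature, then RNA/DNA hybrid (16.6 nM final; HCV-derived RNA, biotinylated primer) plus 2 μM dNTPs and 66.6 nM Ru-dUTP added, 90 min at 37 °C. Avidin capture and ECL counting; percent inhibition relative to DMSO (0%) and 1 μM efavirenz (100%), four-parameter IC50 fit.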

[2] = Determination of PK parameters in dog after intravenous bolus; type: in vivo, Male beagle dogs; conditions: male beagle dog, plasma, 50% DMSO in PEG400, read-out: Dog t1/2 (terminal half-life) (converted)
Method: Determination of PK Parameters Male beagle dogs (weight 9-13 kg) were fasted overnight and housed individually. Water was provided ad lib throughout the study. Food was allowed approximately 4 hr post dose. […] The formulations were given intravenous as a bolus injection into the cephalic vein. The vein used for the dosing will not be used for the blood sample collection for the first 4 hr post-dose). […] EDTA was used as anticoagulant and approximately 0.5 mL aliquots of blood samples were collected at each time point. […] Test compound concentration in dog plasma was determined using a LC/MS/MS method. Typically the LC/MS/MS system consisted of an ACQUITY UPLC system with autosampler system refrigerated at 4° C. during analysis, and an API 4000 mass spectrometer. […] The mobile phase consisting of a solvent A (0.1% formic acid in water/acetonitrile (95/5)) and solvent B (0.1% formic acid in acetonitrile/water (95/5)) was delivered at a flow rate of 600 μL/min. […] Mass spectrometric detection of the analytes is accomplished using either an ESI or APCI interface operated in the positive or negative ionization mode. Analyte response is measured by multiple reaction monitoring (MRM) of transitions unique to each compound […]

Structure (SMILES) | IC50 [1] [nM] | half-life [2] [h]
N#Cc1cc(Cl)cc(Oc2c(C(F)(F)F)ncn(Cc3ccc(=O)[nH]n3)c2=O)c1 [Example 7, 3-chloro-5-((6-oxo-1-((6-oxo-1,6-dihydropyridazin-3-yl)methyl)-4-(trifluoromethyl)-1,6-dihydropyrimidin-5-yl)oxy)benzonitrile] | 8 | 28
CC(C)(C)c1ncc(Cn2cnc(C(F)(F)F)c(Oc3cc(Cl)cc(C#N)c3)c2=O)c(=O)[nH]1 [Example 130, 3-((1-((2-(tert-butyl)-6-oxo-1,6-dihydropyrimidin-5-yl)methyl)-6-oxo-4-(trifluoromethyl)-1,6-dihydropyrimidin-5-yl)oxy)-5-chlorobenzonitrile] | 12 | 24
N#Cc1cc(Cl)cc(Oc2c(C(F)(F)F)ncn(Cc3cc(C4CC4)n[nH]c3=O)c2=O)c1 [Example 117, 3-chloro-5-((1-((6-cyclopropyl-3-oxo-2,3-dihydropyridazin-4-yl)methyl)-6-oxo-4-(trifluoromethyl)-1,6-dihydropyrimidin-5-yl)oxy)benzonitrile] | 6 | 30
N#Cc1cc(Cl)cc(Oc2c(C(F)(F)F)ncn(Cc3cc(C(F)F)n[nH]c3=O)c2=O)c1 [Example 128, 3-chloro-5-((1-((6-(difluoromethyl)-3-oxo-2,3-dihydropyridazin-4-yl)methyl)-6-oxo-4-(trifluoromethyl)-1,6-dihydropyrimidin-5-yl)oxy)benzonitrile] | 4 | 81
CC(F)(F)c1cc(Cn2cnc(C(F)(F)F)c(Oc3cc(Cl)cc(C#N)c3)c2=O)n[nH]c1=O [Example 104, 3-chloro-5-((1-((5-(1,1-difluoroethyl)-6-oxo-1,6-dihydropyridazin-3-yl)methyl)-6-oxo-4-(trifluoromethyl)-1,6-dihydropyrimidin-5-yl)oxy)benzonitrile] | 15 | 24
N#Cc1cc(Cl)cc(Oc2c(C(F)(F)F)ncn(Cc3cc(-c4ccccc4)n[nH]c3=O)c2=O)c1 [Example 110, 3-chloro-5-((6-oxo-1-((3-oxo-6-phenyl-2,3-dihydropyridazin-4-yl)methyl)-4-(trifluoromethyl)-1,6-dihydropyrimidin-5-yl)oxy)benzonitrile] | 3 | 20
N#Cc1cc(Cl)cc(Oc2c(C(F)(F)F)ncn(Cc3cc(-c4ccc(F)cc4)c(=O)[nH]n3)c2=O)c1 [Example 77, 3-chloro-5-((1-((5-(4-fluorophenyl)-6-oxo-1,6-dihydropyridazin-3-yl)methyl)-6-oxo-4-(trifluoromethyl)-1,6-dihydropyrimidin-5-yl)oxy)benzonitrile] | 4 | 79
N#Cc1cc(Cl)cc(Oc2c(C(F)(F)F)ncn(Cc3cc(-c4ccc(C#N)c(F)c4)c(=O)[nH]n3)c2=O)c1 [Example 68, 4-(6-((5-(3-chloro-5-cyanophenoxy)-6-oxo-4-(trifluoromethyl)pyrimidin-1(6H)-yl)methyl)-3-oxo-2,3-dihydropyridazin-4-yl)-2-fluorobenzonitrile] | 7 | 25
N#Cc1cc(Cl)cc(Oc2c(C(F)(F)F)ncn(Cc3cc(C(F)(F)F)c(=O)[nH]n3)c2=O)c1 [Example 6, 3-chloro-5-((6-oxo-1-((6-oxo-5-(trifluoromethyl)-1,6-dihydropyridazin-3-yl)methyl)-4-(trifluoromethyl)-1,6-dihydropyrimidin-5-yl)oxy)benzonitrile] | 8 | 72
CC(F)(F)c1cc(Cn2cnc(C(F)(F)F)c(Oc3cc(Cl)cc(C#N)c3)c2=O)c(=O)[nH]n1 [Example 129, 3-chloro-5-((1-((6-(1,1-difluoroethyl)-3-oxo-2,3-dihydropyridazin-4-yl)methyl)-6-oxo-4-(trifluoromethyl)-1,6-dihydropyrimidin-5-yl)oxy)benzonitrile] | 6 | 126
